Measurements reported in ChEMBL document CHEMBL1201862, “PubChem BioAssay data set” (2004).
Active and inactive are the calls of the source.

Key:
CAAX prenyl protease 2 = target: T1, CAAX prenyl protease 2 (Homo sapiens, UniProt Q9Y256); assay: inhibition of Ras-converting CAAX protease Rce1 – biochemical, yeast membranes, quenched-peptide fluorescence, cherry-pick, dose response (AID 588849)
T1 sequence (Q9Y256 whole entry): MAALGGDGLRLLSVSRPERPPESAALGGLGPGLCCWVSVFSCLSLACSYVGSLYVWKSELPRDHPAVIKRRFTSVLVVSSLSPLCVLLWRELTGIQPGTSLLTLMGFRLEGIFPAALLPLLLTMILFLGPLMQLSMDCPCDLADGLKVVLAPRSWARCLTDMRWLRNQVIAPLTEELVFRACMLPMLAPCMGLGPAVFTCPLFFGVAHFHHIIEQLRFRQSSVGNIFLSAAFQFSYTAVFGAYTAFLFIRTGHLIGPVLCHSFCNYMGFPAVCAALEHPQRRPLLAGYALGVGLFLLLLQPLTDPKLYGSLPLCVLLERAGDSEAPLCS

ORF 73 = target: T2, ORF 73 (Human herpesvirus 8, UniProt O40947); assay: KSHV LANA DNA-binding disruption – biochemical, fluorescence polarization, cherry-picked samples, dose response (AID 504725); set-up: species or system Human gammaherpesvirus 8;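 further: fluorescence polarization of a labeled DNA duplex reporting LANA DNA binding; potency is for inhibitors that block LANA binding to the DNA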
T2 sequence (O40947 whole entry): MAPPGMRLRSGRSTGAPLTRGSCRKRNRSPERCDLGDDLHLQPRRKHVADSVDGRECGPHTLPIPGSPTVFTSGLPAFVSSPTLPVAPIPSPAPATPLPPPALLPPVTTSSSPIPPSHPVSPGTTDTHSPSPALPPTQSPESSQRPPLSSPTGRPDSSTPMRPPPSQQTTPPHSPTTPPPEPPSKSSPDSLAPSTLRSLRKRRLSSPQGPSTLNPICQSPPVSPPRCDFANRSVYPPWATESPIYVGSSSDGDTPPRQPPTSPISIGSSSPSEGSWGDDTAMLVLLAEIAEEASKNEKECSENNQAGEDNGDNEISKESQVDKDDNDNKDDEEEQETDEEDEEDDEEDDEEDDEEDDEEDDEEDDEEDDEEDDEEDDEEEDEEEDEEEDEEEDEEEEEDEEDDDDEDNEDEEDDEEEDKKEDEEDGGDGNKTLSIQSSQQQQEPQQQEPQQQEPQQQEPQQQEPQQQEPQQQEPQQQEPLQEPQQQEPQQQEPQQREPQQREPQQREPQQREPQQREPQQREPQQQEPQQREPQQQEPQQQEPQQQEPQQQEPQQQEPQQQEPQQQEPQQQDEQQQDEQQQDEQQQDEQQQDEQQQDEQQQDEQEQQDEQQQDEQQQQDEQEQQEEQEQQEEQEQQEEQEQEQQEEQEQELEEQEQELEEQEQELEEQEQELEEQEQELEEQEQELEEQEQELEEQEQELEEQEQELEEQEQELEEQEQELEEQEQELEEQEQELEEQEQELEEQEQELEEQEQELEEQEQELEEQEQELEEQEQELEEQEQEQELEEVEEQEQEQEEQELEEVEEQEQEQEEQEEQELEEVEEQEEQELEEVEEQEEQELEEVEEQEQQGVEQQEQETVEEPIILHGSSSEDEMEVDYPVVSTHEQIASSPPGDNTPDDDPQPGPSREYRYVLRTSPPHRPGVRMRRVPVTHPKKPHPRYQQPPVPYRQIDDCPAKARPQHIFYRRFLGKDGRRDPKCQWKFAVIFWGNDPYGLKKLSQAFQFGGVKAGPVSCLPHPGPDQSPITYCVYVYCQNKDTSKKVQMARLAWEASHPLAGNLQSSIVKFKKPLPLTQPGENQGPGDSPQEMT

[1] = target: UDP-galactopyranose mutase (Mycobacterium tuberculosis, UniProt P9WIQ1); assay: Inhibitors of Mycobacterium tuberculosis UDP-galactopyranose mutase (UGM) enzyme Measured in Biochemical System Using Plate Reader - 2105-02_Inhibitor_Dose_CherryPick_Activity. [Related pubchem assays (depositor defined):AID504439]
Keap1/Nrf2 = Keap1/Nrf2 (Homo sapiens, UniProt Q14145); assay: disruptors of Keap1 binding to Nrf2 peptide – biochemical, fluorescence polarization, cherry-picked samples, dose response (AID 588683)
[2] = target: T3, High affinity choline transporter 1 (Homo sapiens, UniProt Q9GZV3); assay: human choline transporter blockers, potency – cell-based, 5-point CRC, membrane potential dye, dose response (AID 504840); assay type: functional
T3 sequence (Q9GZV3 whole entry): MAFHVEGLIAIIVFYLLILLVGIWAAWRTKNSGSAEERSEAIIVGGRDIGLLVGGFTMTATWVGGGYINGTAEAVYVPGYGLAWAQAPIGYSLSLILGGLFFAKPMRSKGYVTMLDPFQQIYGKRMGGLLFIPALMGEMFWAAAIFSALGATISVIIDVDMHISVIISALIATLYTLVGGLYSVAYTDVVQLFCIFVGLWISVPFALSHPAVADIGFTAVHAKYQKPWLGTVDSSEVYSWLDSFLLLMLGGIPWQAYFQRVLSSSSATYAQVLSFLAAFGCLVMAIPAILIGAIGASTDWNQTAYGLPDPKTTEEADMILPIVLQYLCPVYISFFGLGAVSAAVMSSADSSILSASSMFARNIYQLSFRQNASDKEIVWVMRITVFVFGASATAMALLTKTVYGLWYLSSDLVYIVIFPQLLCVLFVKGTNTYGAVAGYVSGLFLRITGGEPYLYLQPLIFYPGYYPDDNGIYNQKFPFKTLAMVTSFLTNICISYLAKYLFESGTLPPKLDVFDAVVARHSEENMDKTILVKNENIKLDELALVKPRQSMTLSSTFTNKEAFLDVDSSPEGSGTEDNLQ

[3] = target: T4, Corticotropin-releasing factor receptor 2/Corticotropin-releasing factor-binding protein (Homo sapiens, UniProt P24387+Q13324); assay: Dose Response confirmation of uHTS hits for small molecule antagonists of the CRF-binding protein and CRF-R2 receptor complex.; assay type: functional; details: read-out: IC50_Mean
T4 sequence (Q13324 whole entry): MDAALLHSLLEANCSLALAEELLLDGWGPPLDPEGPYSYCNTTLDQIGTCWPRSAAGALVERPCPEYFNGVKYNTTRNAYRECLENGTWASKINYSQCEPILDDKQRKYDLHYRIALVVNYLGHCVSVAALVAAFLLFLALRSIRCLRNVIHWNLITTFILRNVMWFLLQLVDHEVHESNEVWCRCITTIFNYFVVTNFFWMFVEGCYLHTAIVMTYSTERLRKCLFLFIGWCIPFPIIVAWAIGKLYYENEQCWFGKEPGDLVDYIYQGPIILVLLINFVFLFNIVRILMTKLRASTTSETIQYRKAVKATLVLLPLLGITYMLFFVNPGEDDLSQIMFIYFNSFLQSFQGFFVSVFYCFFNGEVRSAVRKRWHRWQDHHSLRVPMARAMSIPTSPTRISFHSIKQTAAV
T4 sequence (P24387 whole entry): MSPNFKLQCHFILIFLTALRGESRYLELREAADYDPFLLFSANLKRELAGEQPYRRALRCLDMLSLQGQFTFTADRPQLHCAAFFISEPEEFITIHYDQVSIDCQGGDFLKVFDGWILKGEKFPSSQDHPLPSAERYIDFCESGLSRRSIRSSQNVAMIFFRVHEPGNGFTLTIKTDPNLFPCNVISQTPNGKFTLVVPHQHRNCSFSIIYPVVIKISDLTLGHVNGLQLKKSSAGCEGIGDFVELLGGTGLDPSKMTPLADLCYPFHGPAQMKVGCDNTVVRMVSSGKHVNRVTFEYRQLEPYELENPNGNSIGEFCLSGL

[4] = target: T4, Corticotropin-releasing factor receptor 2/Corticotropin-releasing factor-binding protein; assay: activators of CRF receptor 2 with binding protein – uHTS hits, confirmation (AID 602473); assay type: functional; details: read-out: EC50_Mean
[5] = reduced cellular PGC1a acetyl-lysine signal – cell-based, cherry-picked samples, dose response (AID 720514); assay type: functional;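 further: potency may reflect raised or lowered acetylation signal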
Jurkat = assay: blockers of NF-kB activation in T cells – Jurkat, luciferase reporter, luminescence, B- and T-cell, dose response (AID 489004); assay type: functional, cell-based; details: Homo sapiens;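 further: NF-kB luciferase reporter Jurkat cells stimulated with PMA plus ionomycin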
[6] = HEK-293T viability loss, compound-treated – cell-based, uHTS hits, cytotoxicity control for B/T-cell NF-kB inhibitor project, dose response (AID 489019); assay type: functional;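 further: IC50 reflects cytotoxicity as loss of cell viability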
[7] = reduction of Shn3 3'UTR-driven luciferase in osteoblasts – cell-based, Clone20 osteoblasts, firefly luciferase, cherry-picked, dose response (AID 624132); assay type: functional;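 further: firefly luciferase luminescence from reporter carrying the Shn3 3'UTR in osteoblasts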
[8] = loss of viability in HepG2 cells – cell-based, CellTiter-Glo, cherry-picked, cytotoxicity control for Shn3 inhibitor project, dose response (AID 624134); assay type: functional
[9] = non-specific 3'UTR reporter inhibition in Clone20-Shn3RL – cell-based, Renilla luciferase, cherry-picked, counter-screen for Shn3 inhibitor project, dose response (AID 624133); assay type: functional
cells [10] = assay type: functional, cell-based
[11] = Luminescence Cell-Based Dose Response HTS to Identify Inhibitors of 5'UTR Stem-Loop Driven Prion Protein mRNA Translation in H4 Neuroglioblastoma Cells. [Related pubchem assays: 1827 (Project Summary), 1813 (Primary HTS)]; assay type: functional
[12] = microbe, parasite or virus in culture; assay type: functional; details: Mycobacterium tuberculosis
cells [13] = assay type: functional, cell-based; remark: listed apart in the source
[14] = target: T5, Calpain-2 catalytic subunit (Sus scrofa, UniProt P43367); assay: m-calpain protease blockers, concentration series – biochemical, fluorogenic peptide substrate, dose response (AID 1420); assay type: functional
T5 sequence (P43367 whole entry): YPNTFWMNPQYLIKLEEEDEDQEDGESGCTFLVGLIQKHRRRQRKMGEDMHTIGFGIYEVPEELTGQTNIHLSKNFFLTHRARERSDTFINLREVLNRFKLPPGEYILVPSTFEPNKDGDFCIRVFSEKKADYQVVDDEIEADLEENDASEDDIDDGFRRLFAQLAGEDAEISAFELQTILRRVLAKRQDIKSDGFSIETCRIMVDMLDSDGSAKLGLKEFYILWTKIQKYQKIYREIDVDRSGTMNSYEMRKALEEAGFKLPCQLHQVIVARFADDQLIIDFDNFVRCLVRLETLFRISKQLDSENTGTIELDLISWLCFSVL

Troponin, cardiac muscle = Troponin, cardiac muscle (Homo sapiens, UniProt P19429+P45379+P63316); assay: Fluorescence-based biochemical high throughput dose response assay for activators of the calcium sensitivity of cardiac Regulated Thin Filaments (RTF). [Related pubchem assays (depositor defined):AID493008, AID493018, AID504382, AID504383]; assay type: protein-complex assay
[15] = target: Heat shock protein HSP 90-alpha (Homo sapiens, UniProt P07900); assay type: functional, organism-based
[16] = viability loss in HeLa cells – cytotoxicity control for MgcRacGAP inhibitor project, dose response (AID 624300); assay type: functional
[17] = target: T6, Rac GTPase-activating protein 1 (Homo sapiens, UniProt Q9H0H5); assay: blockers of MgcRacGAP-driven Rac1 GTP hydrolysis – biochemical, ADP Hunter fluorescence, primary and confirmatory, confirmation (AID 624330); assay type: functional
T6 sequence (Q9H0H5 whole entry): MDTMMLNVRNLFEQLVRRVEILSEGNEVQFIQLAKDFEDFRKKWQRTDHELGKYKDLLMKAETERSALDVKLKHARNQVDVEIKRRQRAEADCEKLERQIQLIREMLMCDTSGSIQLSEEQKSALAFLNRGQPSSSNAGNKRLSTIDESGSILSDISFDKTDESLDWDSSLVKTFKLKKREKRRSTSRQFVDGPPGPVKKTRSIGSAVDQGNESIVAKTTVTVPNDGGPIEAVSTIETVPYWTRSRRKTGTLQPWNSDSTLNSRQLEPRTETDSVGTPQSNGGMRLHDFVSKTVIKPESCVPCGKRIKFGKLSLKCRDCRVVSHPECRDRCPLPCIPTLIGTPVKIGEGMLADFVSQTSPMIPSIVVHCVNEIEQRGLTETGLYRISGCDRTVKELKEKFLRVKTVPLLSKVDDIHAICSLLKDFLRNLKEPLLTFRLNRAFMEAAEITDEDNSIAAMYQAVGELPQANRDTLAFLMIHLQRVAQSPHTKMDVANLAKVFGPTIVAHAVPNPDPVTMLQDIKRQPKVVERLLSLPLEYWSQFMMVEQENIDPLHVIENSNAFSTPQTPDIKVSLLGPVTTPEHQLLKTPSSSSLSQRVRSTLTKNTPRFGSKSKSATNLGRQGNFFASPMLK

[18] = target: T7, COUP transcription factor 2 (Homo sapiens, UniProt P24468); assay: Luminescence-based cell-based high throughput dose response assay to identify inhibitors of COUP-TFII (NR2F2).; assay type: functional;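 further: HEK293 cells transiently cotransfected with COUP-TFII expression vector and reporter; luciferase reporter luminescence driven by COUP-TFII from the pX2-168 reporter plasmid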
T7 sequence (P24468 whole entry): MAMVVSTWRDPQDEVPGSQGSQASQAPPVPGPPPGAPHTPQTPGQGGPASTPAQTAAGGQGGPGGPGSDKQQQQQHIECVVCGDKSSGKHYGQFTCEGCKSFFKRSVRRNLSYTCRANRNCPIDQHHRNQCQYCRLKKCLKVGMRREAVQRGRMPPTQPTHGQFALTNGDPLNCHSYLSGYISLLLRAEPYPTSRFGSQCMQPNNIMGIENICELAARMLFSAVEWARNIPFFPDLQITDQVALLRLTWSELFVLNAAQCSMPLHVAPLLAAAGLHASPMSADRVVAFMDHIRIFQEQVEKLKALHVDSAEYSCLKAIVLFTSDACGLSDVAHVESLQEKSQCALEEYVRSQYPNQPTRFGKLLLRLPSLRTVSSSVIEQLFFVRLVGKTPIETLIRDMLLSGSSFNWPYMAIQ

Keap1/Nrf2, sequence (Q16236 whole entry): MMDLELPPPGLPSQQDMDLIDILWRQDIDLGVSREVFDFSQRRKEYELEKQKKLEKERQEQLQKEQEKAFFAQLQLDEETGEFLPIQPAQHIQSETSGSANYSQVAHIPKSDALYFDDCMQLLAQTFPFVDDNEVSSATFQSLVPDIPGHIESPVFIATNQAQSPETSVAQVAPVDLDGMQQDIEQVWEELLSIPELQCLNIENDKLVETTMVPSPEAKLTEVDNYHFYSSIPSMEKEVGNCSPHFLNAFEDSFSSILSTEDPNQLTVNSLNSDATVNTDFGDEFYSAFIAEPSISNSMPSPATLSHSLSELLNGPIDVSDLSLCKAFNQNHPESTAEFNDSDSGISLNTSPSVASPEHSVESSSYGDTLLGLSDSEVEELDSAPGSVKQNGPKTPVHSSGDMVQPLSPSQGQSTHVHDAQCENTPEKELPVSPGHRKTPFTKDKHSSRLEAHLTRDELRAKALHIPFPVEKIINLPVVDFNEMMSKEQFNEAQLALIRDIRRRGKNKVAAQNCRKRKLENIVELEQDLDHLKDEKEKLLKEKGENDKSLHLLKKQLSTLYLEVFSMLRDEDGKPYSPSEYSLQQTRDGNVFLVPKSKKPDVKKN
Keap1/Nrf2, sequence (Q14145 whole entry): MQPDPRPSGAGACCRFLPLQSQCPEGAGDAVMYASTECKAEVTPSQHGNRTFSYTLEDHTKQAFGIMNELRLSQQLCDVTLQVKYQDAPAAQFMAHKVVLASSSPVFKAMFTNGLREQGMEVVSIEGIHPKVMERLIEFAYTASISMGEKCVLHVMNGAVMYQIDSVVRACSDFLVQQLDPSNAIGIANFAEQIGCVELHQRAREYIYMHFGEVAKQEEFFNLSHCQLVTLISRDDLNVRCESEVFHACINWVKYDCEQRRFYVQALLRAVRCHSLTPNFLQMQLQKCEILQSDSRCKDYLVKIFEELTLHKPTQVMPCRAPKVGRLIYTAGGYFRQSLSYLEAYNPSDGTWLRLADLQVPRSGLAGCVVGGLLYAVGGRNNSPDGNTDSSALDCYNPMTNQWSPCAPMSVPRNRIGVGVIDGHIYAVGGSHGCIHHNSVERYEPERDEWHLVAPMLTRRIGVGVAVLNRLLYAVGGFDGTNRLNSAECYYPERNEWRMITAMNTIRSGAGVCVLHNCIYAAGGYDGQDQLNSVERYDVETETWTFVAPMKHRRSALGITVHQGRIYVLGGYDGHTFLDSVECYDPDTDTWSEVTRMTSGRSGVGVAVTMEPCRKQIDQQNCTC
UDP-galactopyranose mutase, sequence (P9WIQ1 whole entry): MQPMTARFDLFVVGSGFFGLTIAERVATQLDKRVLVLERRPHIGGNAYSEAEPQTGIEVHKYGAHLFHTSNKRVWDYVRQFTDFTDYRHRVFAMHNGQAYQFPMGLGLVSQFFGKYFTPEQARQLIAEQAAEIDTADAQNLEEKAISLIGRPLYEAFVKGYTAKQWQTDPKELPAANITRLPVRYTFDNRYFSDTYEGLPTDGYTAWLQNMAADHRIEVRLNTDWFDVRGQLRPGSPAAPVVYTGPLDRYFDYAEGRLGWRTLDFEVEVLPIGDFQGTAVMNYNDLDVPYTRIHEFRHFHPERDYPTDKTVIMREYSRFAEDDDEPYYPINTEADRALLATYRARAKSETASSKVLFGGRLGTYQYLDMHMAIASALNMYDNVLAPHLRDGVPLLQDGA

CC(=O)NN1C(=O)c2ccccc2NC1c1ccccc1 (stereo unspecified)
AC50 (CAAX prenyl protease 2): > 100 µM (inactive)

Nc1ccc2nc3c(=O)n(C4CCCCC4)c(=O)[nH]c3nc2c1
AC50 (ORF 73): 1.42 µM (active)
AC50 [1]: 2.64 µM (active)
AC50 (Keap1/Nrf2): 9.04 µM (active)

O=c1[nH]c(=O)n(-c2ccc(F)cc2)c2c1C(C(F)(F)F)(C(F)(F)F)N=C(c1ccc(F)cc1)N2
IC50 [2]: 12 µM (active)
IC50 [3]: 4.69 µM (active)
EC50 [4]: > 53 µM (inactive)

Cc1cccc(NS(=O)(=O)c2cccc(C(=O)NCC(c3ccco3)N3CCCCC3)c2)c1 (stereo unspecified)
IC50 [2]: 22 µM (active)
AC50 [5]: 32.2 µM (active)

CC1(c2ccc3ccccc3c2)NC(=O)N(CC(=O)N2CCN(Cc3ccc(C#N)cc3)CC2)C1=O (stereo unspecified)
IC50 (Jurkat): > 80 µM (inactive)
IC50 [6]: > 80 µM (inactive)
AC50 [7]: 0.416 µM (active)
AC50 [8]: < 0.26 µM (active)
AC50 [9]: 1.04 µM (active)

CCN1/C(=C/c2ccc3cc(C)ccc3[n+]2CC)Sc2ccccc21
EC50 (cells [10]): > 350 µM (not active)
EC50 [11]: > 120 µM (not active)
CC50 [12]: 1.92 µM (active)
EC50 (cells [13]): > 350 µM (not active)
IC50 [14]: 16.4 µM (not active)
IC50 (Jurkat): 2.6 µM (active)
EC50 (Troponin, cardiac muscle): 10.4 µM (inactive)
IC50 [6]: > 80 µM (inactive)
AC50 [15]: 7.73 µM (active)
CC50 [16]: 12.5 µM (active)
IC50 [17]: 59.5 µM (active)
IC50 [18]: 1.55 µM (active)
